{"source": "the supplement of paper PMC9663587", "key": {"[1]": {"compound": "CCCCOc1c(C(=O)c2c(F)cc(C)cc2F)c[nH]c2nncc1-2"}, "Luminespib/NVP-AUY922": {"compound": "CCNC(=O)c1noc(-c2cc(C(C)C)c(O)cc2O)c1-c1ccc(CN2CCOCC2)cc1 [Luminespib/NVP-AUY922]"}, "THZ-P1-2": {"compound": "CN(C)C/C=C/C(=O)NC1=CC=C(C=C1)C(=O)NC2=CC=CC(=C2)NC3=NC=NC(=C3)C4=CNC5=CC=CC=C54 [THZ-P1-2]"}, "BSJ-01-175": {"compound": "CN(C)C/C=C/C(=O)Nc1ccc(O[C@@H]2CCC[C@@H](Nc3ncc(Cl)c(-c4c[nH]c5ccccc45)n3)C2)cc1 [BSJ-01-175]"}, "Saracatinib/AZD0530": {"compound": "CN1CCN(CCOc2cc(OC3CCOCC3)c3c(Nc4c(Cl)ccc5c4OCO5)ncnc3c2)CC1 [Saracatinib/AZD0530]"}, "Ceritinib/LDK378": {"compound": "Cc1cc(Nc2ncc(Cl)c(Nc3ccccc3S(=O)(=O)C(C)C)n2)c(OC(C)C)cc1C1CCNCC1 [Ceritinib/LDK378]"}, "YKL-5-124": {"compound": "C=CC(=O)Nc1ccc(C(=O)Nc2[nH]nc3c2CN(C(=O)N[C@H](CN(C)C)c2ccccc2)C3(C)C)cc1 [YKL-5-124]", "test": "increase in dead-cell fraction, 72 h; higher = more death;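 also: breast cancer cell lines in 384-well plates, stained with Hoechst plus LIVE/DEAD far red dye and imaged, cells above an LDR intensity threshold counted dead, Hoechst-negative corpses included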"}, "BSJ-03-123": {"compound": "CC(=O)c1c(C)c2cnc(Nc3ccc(N4CCN(CCOCCOCCOCCNC(=O)COc5cccc6c5C(=O)N(C5CCC(=O)NC5=O)C6=O)CC4)cn3)nc2n(C2CCCC2)c1=O [BSJ-03-123]", "test": "increase in dead-cell fraction, 72 h; higher = more death"}, "[2]": {"compound": "CC(=O)c1c(C)c2cnc(Nc3ccc(N4CCNCC4)cn3)nc2n(C2CCCC2)c1=O", "test": "increase in dead-cell fraction, 72 h; higher = more death"}, "[3]": {"compound": "CCN1CCN(Cc2ccc(Nc3ncc(F)c(-c4cc(F)c5nc(C)n(C(C)C)c5c4)n3)nc2)CC1", "test": "increase in dead-cell fraction, 72 h; higher = more death"}, "Neratinib/HKI272": {"compound": "CCOc1cc2ncc(C#N)c(Nc3ccc(OCc4ccccn4)c(Cl)c3)c2cc1NC(=O)/C=C/CN(C)C [Neratinib/HKI272]", "test": "increase in dead-cell fraction, 72 h; higher = more death"}}}
{"cell line": "MDAMB231", "values": [{"measurement": "GR50, 72 h", "setting": "[1]", "value": 1.16, "unit": "µM"}, {"measurement": "GR50, 72 h", "setting": "Luminespib/NVP-AUY922", "value": 0.0058, "unit": "µM"}, {"measurement": "GR50, 72 h", "setting": "THZ-P1-2", "value": 4.94, "unit": "µM"}, {"measurement": "GR50, 72 h", "setting": "BSJ-01-175", "value": 0.0118, "unit": "µM"}, {"measurement": "GR50, 72 h", "setting": "Saracatinib/AZD0530", "value": 2.33, "unit": "µM"}, {"measurement": "GR50, 72 h", "setting": "Ceritinib/LDK378", "value": 0.866, "unit": "µM"}, {"measurement": "increase in dead-cell fraction", "setting": "YKL-5-124; 0.001 µM", "value": 0.0171}, {"measurement": "increase in dead-cell fraction", "setting": "YKL-5-124; 0.003162 µM", "value": 0.0093}, {"measurement": "increase in dead-cell fraction", "setting": "YKL-5-124; 0.01 µM", "value": 0.016}, {"measurement": "increase in dead-cell fraction", "setting": "YKL-5-124; 0.03162 µM", "value": 0.0176}, {"measurement": "increase in dead-cell fraction", "setting": "YKL-5-124; 0.1 µM", "value": 0.0238}, {"measurement": "increase in dead-cell fraction", "setting": "YKL-5-124; 0.3162 µM", "value": 0.0218}, {"measurement": "increase in dead-cell fraction", "setting": "YKL-5-124; 1 µM", "value": 0.0259}, {"measurement": "increase in dead-cell fraction", "setting": "YKL-5-124; 3.162 µM", "value": 0.0247}, {"measurement": "increase in dead-cell fraction", "setting": "YKL-5-124; 10 µM", "value": 0.155}, {"measurement": "increase in dead-cell fraction", "setting": "BSJ-03-123; 0.001 µM", "value": -0.0008}, {"measurement": "increase in dead-cell fraction", "setting": "BSJ-03-123; 0.003162 µM", "value": -0.0016}, {"measurement": "increase in dead-cell fraction", "setting": "BSJ-03-123; 0.01 µM", "value": 0.0034}, {"measurement": "increase in dead-cell fraction", "setting": "BSJ-03-123; 0.03162 µM", "value": 0.0017}, {"measurement": "increase in dead-cell fraction", "setting": "BSJ-03-123; 0.1 µM", "value": 0.0035}, {"measurement": "increase in dead-cell fraction", "setting": "BSJ-03-123; 0.3162 µM", "value": 0.0024}, {"measurement": "increase in dead-cell fraction", "setting": "BSJ-03-123; 1 µM", "value": 0.0009}, {"measurement": "increase in dead-cell fraction", "setting": "BSJ-03-123; 3.162 µM", "value": 0.0031}, {"measurement": "increase in dead-cell fraction", "setting": "BSJ-03-123; 10 µM", "value": 0.157}, {"measurement": "increase in dead-cell fraction", "setting": "[2]; 0.0003162 µM", "value": -0.0007}, {"measurement": "increase in dead-cell fraction", "setting": "[2]; 0.001 µM", "value": 0.0057}, {"measurement": "increase in dead-cell fraction", "setting": "[2]; 0.003162 µM", "value": -0.0035}, {"measurement": "increase in dead-cell fraction", "setting": "[2]; 0.01 µM", "value": -0.0069}, {"measurement": "increase in dead-cell fraction", "setting": "[2]; 0.03162 µM", "value": -0.0054}, {"measurement": "increase in dead-cell fraction", "setting": "[2]; 0.1 µM", "value": 0.0066}, {"measurement": "increase in dead-cell fraction", "setting": "[2]; 0.3162 µM", "value": 0.0151}, {"measurement": "increase in dead-cell fraction", "setting": "[2]; 1 µM", "value": 0.0334}, {"measurement": "increase in dead-cell fraction", "setting": "[2]; 3.162 µM", "value": 0.0399}, {"measurement": "increase in dead-cell fraction", "setting": "[3]; 0.001 µM", "value": 0.0075}, {"measurement": "increase in dead-cell fraction", "setting": "[3]; 0.003162 µM", "value": 0.0028}, {"measurement": "increase in dead-cell fraction", "setting": "[3]; 0.01 µM", "value": 0.0023}, {"measurement": "increase in dead-cell fraction", "setting": "[3]; 0.03162 µM", "value": 0.0037}, {"measurement": "increase in dead-cell fraction", "setting": "[3]; 0.1 µM", "value": 0.0398}, {"measurement": "increase in dead-cell fraction", "setting": "[3]; 0.3162 µM", "value": 0.0474}, {"measurement": "increase in dead-cell fraction", "setting": "[3]; 1 µM", "value": 0.12}, {"measurement": "increase in dead-cell fraction", "setting": "[3]; 3.162 µM", "value": 0.366}, {"measurement": "increase in dead-cell fraction", "setting": "[3]; 10 µM", "value": 0.68}, {"measurement": "increase in dead-cell fraction", "setting": "Neratinib/HKI272; 0.0003162 µM", "value": 0.0013}, {"measurement": "increase in dead-cell fraction", "setting": "Neratinib/HKI272; 0.001 µM", "value": -0.0029}, {"measurement": "increase in dead-cell fraction", "setting": "Neratinib/HKI272; 0.003162 µM", "value": 0.0044}, {"measurement": "increase in dead-cell fraction", "setting": "Neratinib/HKI272; 0.01 µM", "value": 0.0008}, {"measurement": "increase in dead-cell fraction", "setting": "Neratinib/HKI272; 0.03162 µM", "value": 0.0108}, {"measurement": "increase in dead-cell fraction", "setting": "Neratinib/HKI272; 0.1 µM", "value": 0.0067}]}
